Columns and labels:
C. jejuni = test: ELISA: inhibition of C. jejuni adherence to BgAgs (Core-I, Core-II, H-I, H-II, Leb, Ley, Lex) by Ferric Quinate; assay type: binding, Campylobacter jejuni; details: for Inhibition of C. jejuni binding to BgAgs: 34 μM Fe(QA)3, pre-incubation and post-treatment, ELISA
Description: The inhibitory potential of Ferric Quinate Fe(QA)3 on adherence of C. jejuni was analyzed by ELISA using BgAgs (Core-I, Core-II, H-I, H-II, Leb, Ley and Lex). C. jejuni was pre-incubated with 34 μM Fe(QA)3 and specific inhibition was also analyzed by post-treatment of C. jejuni with Fe(QA)3 which bound to BgAgs at the time.

[1] = test system: C. jejuni NCTC11168 strain; test: Growth of C. jejuni in culture medium supplemented with Fe(QA)3; assay type: cell-based, Campylobacter jejuni; details: 34 and 340 μM in culture medium
Source text: To further clarify the growth-effect properties of Fe(QA)3, we investigated the effect of adding Fe(QA)3 to the culture medium.

C. jejuni NCTC11168-O = test: Chicken caecal colonisation after oral challenge, Ferric Quinate as additive to water; assay type: in vivo; details: 0.34 mM in water, 6-weeks old birds, 3 and 7 days post-challenge
Description: These inhibitory properties against C. jejuni adherence to BgAgs were analyzed in vivo. Ferric Quinate was used as an additive to water (0.034-0.34 mM) and as an inhibitor of C. jejuni NCTC11168 strain adherence to, and thus colonization, in the chicken intestinal tract. 6-weeks old birds (n=10 per group) were challenged with 3×10^3-5 cfu wild-type strain NCTC11168-O by oral gavage. Caecal colonisation levels were determined in birds from each group at 3 and 7 days post-challenge.

[2] = test system: C. jejuni strain NCTC11168; test: Inhibition ELISA of binding of strain NCTC11168 to H-II glycoconjugate; design: species or system Campylobacter jejuni; details: p<0.001, FIG. 2A
Description: Purified MOMP from NCTC11168 (MOMP(+)), and pre-incubation of NCTC11168 bacterial cells with H-II glycoconjugate (H-II). […] B) ELISA plate was coated with a selection of BgAgs. Specific binding was calculated by subtracting the BSA (negative control) values from the BgAg absorbance at 405 nm. Strain NCTC11168 and Cj-266 (high binder strain, S3—Table 1), and corresponding ΔflaA mutants, have been examined for binding to Le^b, H-II, H-I, Le^x and Le^a. t-test confirmed the reduction in binding seen with mutants are significant (Le^b; p=2.5E-05, H-II; p=0.012, H-I; p=0.001, Le^x; p=0.029 and Le^a; p=0.000) in strain NCTC11168. However, Cj-266ΔflaA mutation had no effect on binding, which indicates the binding capacity was compensated by MOMP protein. Each group of bars from left to right: NCTC11168, 11168-ΔflaA, Cj-266, Cj-266ΔflaA. C) A double mutant (DM) of ΔflaA and single substitution of glycosylation site in MOMP protein (Thr^268 was substituted with Gly) was constructed in both strain NCTC11168 and Cj-266, and the binding to Le^b H-I and H-II was examined. […] Each group of bars from left to right: Leb, H-II, H-1.
Deletion mutant of ΔflaA in strains NCTC11168 and Cj-266 (a clinical isolate, S3—Table) were constructed.

O=C(O)[C@]1(O)C[C@@H](O)[C@@H](O)[C@H](O)C1 [Quinic Acid, D-(−)-quinic acid, reference compound]
Inhibition of C. jejuni binding to BgAgs (C. jejuni): no inhibition

Ferric quinate [Fe(QA)3]
Inhibition of C. jejuni binding to BgAgs (C. jejuni): 90%
Inhibition of microbial adherence, bacterial culture (MH) containing Fe(QA)3 (C. jejuni; bacteria cultured on MH containing Fe(QA)3): reproducible inhibition
Resistance concerning the binding abilities after sequential passages (C. jejuni; sequential passages (P) of bacteria to new plate containing Fe(QA)3): didn't cause any resistance
Effect on growth of C. jejuni NCTC11168 [1]: did not affect the growth
Reduction of adhesion of C. jejuni to the intestinal mucosa (caecal colonisation) (C. jejuni NCTC11168-O): 2-3 Log

B1: MOMP(+): major outer membrane protein purified under native conditions from C. jejuni strain NCTC11168 (protein)
chain: TPLEEAIKDVDVSGVLRYRYDTGNFDKNFVNNSNLNNSKQDHKYRAQVNFSAAIADNFKAFVQFDYNAADGGYGANGIKNDQKGLFVRQLYLTYTNEDVATSVIAGKQQLNLIWTDNAIDGLVGTGVKVVNNSIDGLTLAAFAVDSFMAAEQGADLLEHSNISTTSNQAPFKVDSVGNLYGAAAVGSYDLAGGQFNPQLWLAYWDQVAFFYAVDAAYSTTIFDGINWTLEGAYLGNSLDSELDDKTHANGNLFALKGSIEVNGWDASLGGLYYGDKEKASTVVIEDQGNLGSLLAGEEIFYTTGSRLNGDTGRNIFGYVTGGYTFNETVRVGADFVYGGTKTEAANHLGGGKKLEAVARVDYKYSPKLNFSAFYSYVNLDQGVNTNESADHSTVRLQALYKF
Bacterial binding to H-II antigen [2]: significantly reduced
Bacterial binding to H-II antigen ([2]; listed as purified MOMP): significantly inhibited
